Experimental data taken from PubChem BioAssay AID248 (DTP/NCI, 2004).
Values joined by “and” are separate entries in the source; they are usually repeats but may differ in a detail not shown here. Identical values can stand only once. Inconclusive results and toxic doses are left out. Cut-off read from the data, not from the text of the source: active = T/C of 150% or more; inactive = T/C below 125%.

System: L1210 leukemia ip in BDF1 mice, survival T/C
Assay: NCI In Vivo Anticancer Drug Screen. Data for tumor model L1210 Leukemia (intraperitoneal) in B6D2F1 (BDF1) mice
Conditions: endpoint: mean survival time, higher = longer survival
Summary of the method: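 Read-out is survival time, reported as the treated-group measurement over the vehicle-control measurement.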

[1] = dose: 100.0 mg/kg/injection, schedule: Q01DX001 (ip), vehicle: Klucel (hydroxypropylcellulose) (HPC)
[2] = dose: 200.0 mg/kg/injection, schedule: Q01DX001 (ip), vehicle: Klucel (hydroxypropylcellulose) (HPC)
[3] = dose: 400.0 mg/kg/injection, schedule: Q01DX001 (ip), vehicle: Klucel (hydroxypropylcellulose) (HPC)
[4] = dose: 100.0 mg/kg/injection, schedule: Q04DX002 (ip), vehicle: Klucel (hydroxypropylcellulose) (HPC)
[5] = dose: 200.0 mg/kg/injection, schedule: Q04DX002 (ip), vehicle: Klucel (hydroxypropylcellulose) (HPC)
[6] = dose: 400.0 mg/kg/injection, schedule: Q04DX002 (ip), vehicle: Klucel (hydroxypropylcellulose) (HPC)
[7] = dose: 100.0 mg/kg/injection, schedule: Q04DX003 (ip), vehicle: saline with Tween-80
[8] = dose: 200.0 mg/kg/injection, schedule: Q04DX003 (ip), vehicle: saline with Tween-80
[9] = dose: 400.0 mg/kg/injection, schedule: Q04DX003 (ip), vehicle: saline with Tween-80
[10] = dose: 100.0 mg/kg/injection, schedule: Q01DX009 (ip), vehicle: saline with Tween-80
[11] = dose: 200.0 mg/kg/injection, schedule: Q01DX009 (ip), vehicle: saline with Tween-80
[12] = dose: 400.0 mg/kg/injection, schedule: Q01DX009 (ip), vehicle: saline with Tween-80
[13] = dose: 50.0 mg/kg/injection, schedule: Q04DX003 (ip), vehicle: Klucel (hydroxypropylcellulose) (HPC)
[14] = dose: 100.0 mg/kg/injection, schedule: Q04DX003 (ip), vehicle: Klucel (hydroxypropylcellulose) (HPC)
[15] = dose: 200.0 mg/kg/injection, schedule: Q04DX003 (ip), vehicle: Klucel (hydroxypropylcellulose) (HPC)
[16] = dose: 100.0 mg/kg/injection, schedule: Q04DX002 (ip), vehicle: saline with Tween-80
[17] = dose: 200.0 mg/kg/injection, schedule: Q04DX002 (ip), vehicle: saline with Tween-80
[18] = dose: 400.0 mg/kg/injection, schedule: Q04DX002 (ip), vehicle: saline with Tween-80
[19] = dose: 100.0 mg/kg/injection, schedule: Q01DX009 (ip), vehicle: Klucel (hydroxypropylcellulose) (HPC)
[20] = dose: 200.0 mg/kg/injection, schedule: Q01DX009 (ip), vehicle: Klucel (hydroxypropylcellulose) (HPC)

Measured: T/C

CNc1c2c(nc3ccccc13)CCCC2
inactive: dose: 1.25 mg/kg/injection, schedule: Q01DX009 (ip), vehicle: saline with Tween-80 93 % of control | dose: 1.25 mg/kg/injection, schedule: Q04DX003 (ip), vehicle: saline with Tween-80 97 % of control | dose: 2.5 mg/kg/injection, schedule: Q01DX009 (ip), vehicle: saline with Tween-80 91 % of control | dose: 2.5 mg/kg/injection, schedule: Q04DX003 (ip), vehicle: saline with Tween-80 108 % of control | dose: 5.0 mg/kg/injection, schedule: Q01DX009 (ip), vehicle: saline with Tween-80 89 % of control | dose: 5.0 mg/kg/injection, schedule: Q04DX003 (ip), vehicle: saline with Tween-80 102 % of control

C/C(=N/N=C(N)N)C(=O)O
inactive: dose: 15.0 mg/kg/injection, schedule: Q01DX Z (ip), vehicle: carboxymethylcellulose (CMC) 101 % of control | dose: 30.0 mg/kg/injection, schedule: Q01DX Z (ip), vehicle: carboxymethylcellulose (CMC) 97 % of control | dose: 60.0 mg/kg/injection, schedule: Q01DX Z (ip), vehicle: carboxymethylcellulose (CMC) 100 % of control and 101 % of control | dose: 120.0 mg/kg/injection, schedule: Q01DX Z (ip), vehicle: carboxymethylcellulose (CMC) 101 % of control and 103 % of control | dose: 240.0 mg/kg/injection, schedule: Q01DX Z (ip), vehicle: carboxymethylcellulose (CMC) 112 % of control | dose: 480.0 mg/kg/injection, schedule: Q01DX Z (ip), vehicle: carboxymethylcellulose (CMC) 98 % of control

CC(=O)OC1CCC2(C)C(=CC=C3C2CCC2(C)C3CCC2C(C)CCCC(C)C)C1 (configuration not stated)
inactive: [1] 97 % of control | [2] 87 % of control | [3] 87 % of control

S=C(Nc1ccccc1)c1ccccc1
inactive: [4] 89 % of control | [5] 92 % of control | [6] 105 % of control

CC(C)(C)c1ccc(OC(=S)Nc2ccccc2)cc1
inactive: [7] 111 % of control | [8] 111 % of control | [9] 103 % of control

CCOc1nc(S(=O)(=O)CC)ncc1C
inactive: [10] 109 % of control | [7] 105 % of control | [11] 104 % of control | [8] 100 % of control | [12] 87 % of control | [9] 103 % of control

COC(=O)c1[nH]cnc1N1CC[N+](CCCl)=N1
inactive: dose: 37.5 mg/kg/injection, schedule: Q01DX009 (ip), vehicle: saline 116 % of control | dose: 37.5 mg/kg/injection, schedule: Q04DX003 (ip), vehicle: saline 100 % of control | dose: 75.0 mg/kg/injection, schedule: Q01DX001 (ip), vehicle: saline 98 % of control | dose: 75.0 mg/kg/injection, schedule: Q01DX009 (ip), vehicle: saline 95 % of control | dose: 75.0 mg/kg/injection, schedule: Q04DX003 (ip), vehicle: saline 107 % of control | dose: 150.0 mg/kg/injection, schedule: Q01DX001 (ip), vehicle: saline 100 % of control | dose: 150.0 mg/kg/injection, schedule: Q01DX009 (ip), vehicle: saline 103 % of control | dose: 150.0 mg/kg/injection, schedule: Q04DX003 (ip), vehicle: saline 102 % of control

Cc1c2oc3c(C)ccc(C(=O)NCCC(C)C)c3nc-2c(C(=O)NCCC(C)C)c(N)c1=O
inactive: dose: 10.0 mg/kg/injection, schedule: Q01DX001 (ip), vehicle: carboxymethylcellulose (CMC) 93 % of control

O=C(Nc1ccc2c(c1)OCO2)O/N=C\c1ccccc1
inactive: [10] 89 % of control | [7] 103 % of control | [11] 91 % of control | [8] 97 % of control | [12] 91 % of control | [9] 89 % of control

O=c1cc(CNC23CC4CC(CC(C4)C2)C3)[nH]c(=O)[nH]1
inactive: [7] 96 % of control | [8] 96 % of control | [9] 89 % of control

O=C(O)CCC(NC(=O)OCc1ccccc1)C(=O)NC(Cc1ccccc1)C(=O)O (configuration not stated)
inactive: [7] 102 % of control | [8] 101 % of control | [9] 101 % of control

Oc1ccc(Nc2cc(/C=C/c3ccc(Cl)cc3)nc(/C=C/c3ccc(Cl)cc3)n2)cc1CN1CCCC1
inactive: dose: 50.0 mg/kg/injection, schedule: Q01DX001 (ip), vehicle: saline 89 % of control | [13] 104 % of control | dose: 100.0 mg/kg/injection, schedule: Q01DX001 (ip), vehicle: saline 93 % of control | [14] 95 % of control | dose: 200.0 mg/kg/injection, schedule: Q01DX001 (ip), vehicle: saline 91 % of control | [15] 98 % of control

Cc1cc(SCC(=O)O)sc1C
inactive: [4] 92 % of control | [5] 107 % of control | [6] 107 % of control

CCCCCCCCOc1ccc(C2=NN(c3ccccc3)C(=O)C2)cc1
inactive: [13] 110 % of control | [1] 96 % of control | [14] 90 % of control | [2] 100 % of control | [15] 100 % of control | [3] 102 % of control

c1ccc(C[n+]2ccc(-c3cc[n+](Cc4ccccc4)cc3)cc2)cc1
inactive: dose: 5.0 mg/kg/injection, schedule: Q01DX001 (ip), vehicle: saline 109 % of control

Cn1c(=O)[nH]c(=O)c2c1[nH]c(=O)c(=O)n2C
inactive: dose: 50.0 mg/kg/injection, schedule: Q01DX001 (ip), vehicle: carboxymethylcellulose (CMC) 101 % of control | dose: 100.0 mg/kg/injection, schedule: Q01DX001 (ip), vehicle: carboxymethylcellulose (CMC) 98 % of control | dose: 200.0 mg/kg/injection, schedule: Q01DX001 (ip), vehicle: carboxymethylcellulose (CMC) 95 % of control | dose: 400.0 mg/kg/injection, schedule: Q01DX001 (ip), vehicle: carboxymethylcellulose (CMC) 106 % of control

COc1ccc(OC)c(NC(=O)c2ccccc2Cl)c1
inactive: [10] 93 % of control and 102 % of control | [16] 103 % of control and 111 % of control | [7] 95 % of control | [11] 94 % of control and 101 % of control | [17] 93 % of control and 100 % of control | [8] 94 % of control | [12] 96 % of control | [18] 103 % of control and 104 % of control | [9] 97 % of control

CC(=O)OC1CCC2(C)C(C1)C(OC(C)=O)CC1C3CCC(c4cccc(=O)o4)C3(C)CCC12 (configuration not stated)
inactive: dose: 100.0 mg/kg/injection, schedule: Q01DX001 (sc), vehicle: steriod suspending solution 101 % of control | dose: 200.0 mg/kg/injection, schedule: Q01DX001 (sc), vehicle: steriod suspending solution 102 % of control | dose: 400.0 mg/kg/injection, schedule: Q01DX001 (sc), vehicle: steriod suspending solution 112 % of control

Cc1ccc(-c2nc(-c3nccc4ccccc34)oc2-c2ccccc2)cc1
inactive: [19] 103 % of control | [20] 95 % of control | dose: 400.0 mg/kg/injection, schedule: Q01DX009 (ip), vehicle: Klucel (hydroxypropylcellulose) (HPC) 95 % of control

CC(C)(O)C(C)(O)c1cccc(Cl)c1 (configuration not stated)
inactive: dose: 12.5 mg/kg/injection, schedule: Q01DX009 (ip), vehicle: Klucel (hydroxypropylcellulose) (HPC) 100 % of control | dose: 25.0 mg/kg/injection, schedule: Q01DX009 (ip), vehicle: Klucel (hydroxypropylcellulose) (HPC) 109 % of control | dose: 25.0 mg/kg/injection, schedule: Q04DX003 (ip), vehicle: Klucel (hydroxypropylcellulose) (HPC) 91 % of control | dose: 50.0 mg/kg/injection, schedule: Q01DX009 (ip), vehicle: Klucel (hydroxypropylcellulose) (HPC) 100 % of control | [13] 93 % of control | [19] 100 % of control | [14] 96 % of control | [20] 98 % of control | [15] 90 % of control

O=C1c2cccc(Cl)c2C(=O)c2c(O)ccc(O)c21
inactive: [16] 87 % of control | [17] 97 % of control | [18] 97 % of control

c1ccc(N2CN(c3ccccc3)N(c3ccccc3)CN2c2ccccc2)cc1
inactive: dose: 100.0 mg/kg/injection, schedule: Q01DX001 (ip), vehicle: other 92 % of control | dose: 200.0 mg/kg/injection, schedule: Q01DX001 (ip), vehicle: other 89 % of control
